Data: the NIST ThermoML archive (doi:10.1021/acs.jced.9b00185)
± gives the expanded uncertainty stated by the source.

Key:
[1] = xn = mol fraction of the nth substance listed; settings: 298.15 K, 98.8 kPa, Liquid, Vibrating tube method
[2] = excess molar enthalpy (molar enthalpy of mixing); xn = mol fraction of the nth substance listed; settings: 298.15 K, 98.8 kPa, Liquid, Calvet calorimetry
[3] = 298.15 K; 101.33 kPa; Liquid; Vibrating tube method
[4] = refractive index (Na D-line) (dimensionless); settings: 298.15 K; 101.33 kPa; Liquid; Standard Abbe refractometry

SMILES: CCCCCCCCCCCC [dodecane] + CCCCCCCCCC(=O)OC
- mass density ([1]; x2 = 0): 745.2 ± 1 kg/m3
- excess molar enthalpy ([2]; x2 = 0): 0 ± 0.000239 kcal/mol

SMILES: CCCCCCCCCCCCCC [tetradecane]
- mass density [3]: 759.17 ± 1 kg/m3
- refractive index [4]: 1.4273 ± 0.0005

SMILES: CCCCCCCCCCCC [dodecane]
- mass density [3]: 745.2 ± 1 kg/m3
- refractive index [4]: 1.4197 ± 0.0005

SMILES: CCCCCCCCCC(=O)OC [methyl decanoate] + CCCCCC
- excess molar enthalpy ([2]; x1 = 0.0479): 0.0382 ± 0.00167 kcal/mol
- excess molar enthalpy ([2]; x1 = 0.0943): 0.0636 ± 0.00263 kcal/mol
- excess molar enthalpy ([2]; x1 = 0.1448): 0.081 ± 0.00335 kcal/mol
- excess molar enthalpy ([2]; x1 = 0.1927): 0.105 ± 0.0043 kcal/mol
- excess molar enthalpy ([2]; x1 = 0.2477): 0.114 ± 0.00478 kcal/mol
- excess molar enthalpy ([2]; x1 = 0.3077): 0.123 ± 0.00502 kcal/mol
- excess molar enthalpy ([2]; x1 = 0.3542): 0.126 ± 0.00526 kcal/mol
- excess molar enthalpy ([2]; x1 = 0.4059): 0.125 ± 0.00502 kcal/mol
- excess molar enthalpy ([2]; x1 = 0.4574): 0.12 ± 0.00502 kcal/mol
- excess molar enthalpy ([2]; x1 = 0.5055): 0.113 ± 0.00454 kcal/mol
- excess molar enthalpy ([2]; x1 = 0.5557): 0.107 ± 0.0043 kcal/mol
- excess molar enthalpy ([2]; x1 = 0.6037): 0.0985 ± 0.00406 kcal/mol
- excess molar enthalpy ([2]; x1 = 0.6531): 0.088 ± 0.00359 kcal/mol
- excess molar enthalpy ([2]; x1 = 0.7032): 0.077 ± 0.00311 kcal/mol
- excess molar enthalpy ([2]; x1 = 0.752): 0.0679 ± 0.00287 kcal/mol
- excess molar enthalpy ([2]; x1 = 0.8028): 0.0543 ± 0.00215 kcal/mol
- excess molar enthalpy ([2]; x1 = 0.8496): 0.0399 ± 0.00167 kcal/mol
- excess molar enthalpy ([2]; x1 = 0.9014): 0.0277 ± 0.0012 kcal/mol
- excess molar enthalpy ([2]; x1 = 0.9328): 0.0174 ± 0.000717 kcal/mol
- excess molar enthalpy ([2]; x1 = 1): 0 ± 0.000239 kcal/mol

SMILES: CCCCCCCCCC(=O)OC [methyl decanoate] + CCCCCCCC
- excess molar enthalpy ([2]; x1 = 0.0551): 0.0394 ± 0.00167 kcal/mol
- excess molar enthalpy ([2]; x1 = 0.1035): 0.0691 ± 0.00287 kcal/mol
- excess molar enthalpy ([2]; x1 = 0.154): 0.0949 ± 0.00382 kcal/mol
- excess molar enthalpy ([2]; x1 = 0.2078): 0.113 ± 0.00454 kcal/mol
- excess molar enthalpy ([2]; x1 = 0.2514): 0.127 ± 0.00526 kcal/mol
- excess molar enthalpy ([2]; x1 = 0.3088): 0.137 ± 0.0055 kcal/mol
- excess molar enthalpy ([2]; x1 = 0.3584): 0.143 ± 0.00574 kcal/mol
- excess molar enthalpy ([2]; x1 = 0.399): 0.147 ± 0.00598 kcal/mol
- excess molar enthalpy ([2]; x1 = 0.4514): 0.146 ± 0.00598 kcal/mol
- excess molar enthalpy ([2]; x1 = 0.5051): 0.143 ± 0.00598 kcal/mol
- excess molar enthalpy ([2]; x1 = 0.5555): 0.137 ± 0.0055 kcal/mol
- excess molar enthalpy ([2]; x1 = 0.599): 0.131 ± 0.00526 kcal/mol
- excess molar enthalpy ([2]; x1 = 0.657): 0.115 ± 0.00478 kcal/mol
- excess molar enthalpy ([2]; x1 = 0.7066): 0.103 ± 0.0043 kcal/mol
- excess molar enthalpy ([2]; x1 = 0.7511): 0.0913 ± 0.00382 kcal/mol
- excess molar enthalpy ([2]; x1 = 0.8069): 0.0712 ± 0.00287 kcal/mol
- excess molar enthalpy ([2]; x1 = 0.8577): 0.0533 ± 0.00215 kcal/mol
- excess molar enthalpy ([2]; x1 = 0.9098): 0.0351 ± 0.00143 kcal/mol
- excess molar enthalpy ([2]; x1 = 0.9561): 0.0167 ± 0.000717 kcal/mol
- excess molar enthalpy ([2]; x1 = 1): 0 ± 0.000239 kcal/mol

SMILES: CCCCCCCCCC(=O)OC [methyl decanoate]
- mass density [3]: 868.02 ± 1 kg/m3
- refractive index [4]: 1.4235 ± 0.0005

SMILES: CCCCCC [hexane] + CCCCCCCCCC(=O)OC
- excess molar enthalpy ([2]; x2 = 0): 0 ± 0.000239 kcal/mol

SMILES: CCCCCC [hexane]
- mass density [3]: 654.81 ± 1 kg/m3
- refractive index [4]: 1.3725 ± 0.0005

SMILES: CCCCCCCCCCCCCC [tetradecane] + CCCCCCCCCC(=O)OC
- mass density ([1]; x2 = 0): 759.17 ± 1 kg/m3
- excess molar enthalpy ([2]; x2 = 0): 0 ± 0.000239 kcal/mol

SMILES: CCCCCCCCCC [decane] + CCCCCCCCCC(=O)OC
- excess molar enthalpy ([2]; x2 = 0): 0 ± 0.000239 kcal/mol

SMILES: CCCCCCCC [octane]
- mass density [3]: 698.45 ± 1 kg/m3
- refractive index [4]: 1.3955 ± 0.0005

SMILES: CCCCCCCC [octane] + CCCCCCCCCC(=O)OC
- excess molar enthalpy ([2]; x2 = 0): 0 ± 0.000239 kcal/mol

SMILES: CCCCCCCCCCCCCCCC [hexadecane]
- mass density [3]: 769.8 ± 1 kg/m3
- refractive index [4]: 1.4323 ± 0.0005

SMILES: CCCCCCCCCC [decane]
- mass density [3]: 726.61 ± 1 kg/m3
- refractive index [4]: 1.41 ± 0.0005

SMILES: CCCCCCCCCC(=O)OC [methyl decanoate] + CCCCCCCCCCCCCC
- mass density ([1]; x1 = 0.0498): 763.35 ± 1 kg/m3
- mass density ([1]; x1 = 0.1001): 767.69 ± 1 kg/m3
- mass density ([1]; x1 = 0.1502): 772.18 ± 1 kg/m3
- mass density ([1]; x1 = 0.1998): 776.73 ± 1 kg/m3
- mass density ([1]; x1 = 0.2496): 781.41 ± 1 kg/m3
- mass density ([1]; x1 = 0.2999): 786.24 ± 1 kg/m3
- mass density ([1]; x1 = 0.3501): 791.21 ± 1 kg/m3
- mass density ([1]; x1 = 0.4001): 796.26 ± 1 kg/m3
- mass density ([1]; x1 = 0.4498): 801.43 ± 1 kg/m3
- mass density ([1]; x1 = 0.5001): 806.77 ± 1 kg/m3
- mass density ([1]; x1 = 0.5498): 812.19 ± 1 kg/m3
- mass density ([1]; x1 = 0.5997): 817.76 ± 1 kg/m3
- mass density ([1]; x1 = 0.6499): 823.51 ± 1 kg/m3
- mass density ([1]; x1 = 0.6999): 829.37 ± 1 kg/m3
- mass density ([1]; x1 = 0.7501): 835.45 ± 1 kg/m3
- mass density ([1]; x1 = 0.799): 841.48 ± 1 kg/m3
- mass density ([1]; x1 = 0.849): 847.78 ± 1 kg/m3
- mass density ([1]; x1 = 0.8992): 854.34 ± 1 kg/m3
- mass density ([1]; x1 = 0.95): 861.12 ± 1 kg/m3
- mass density ([1]; x1 = 1): 868.02 ± 1 kg/m3
- excess molar enthalpy ([2]; x1 = 0.0633): 0.0497 ± 0.00215 kcal/mol
- excess molar enthalpy ([2]; x1 = 0.0922): 0.0712 ± 0.00287 kcal/mol
- excess molar enthalpy ([2]; x1 = 0.1577): 0.108 ± 0.0043 kcal/mol
- excess molar enthalpy ([2]; x1 = 0.1964): 0.126 ± 0.00526 kcal/mol
- excess molar enthalpy ([2]; x1 = 0.258): 0.152 ± 0.00621 kcal/mol
- excess molar enthalpy ([2]; x1 = 0.3045): 0.163 ± 0.00669 kcal/mol
- excess molar enthalpy ([2]; x1 = 0.3597): 0.176 ± 0.00717 kcal/mol
- excess molar enthalpy ([2]; x1 = 0.3944): 0.184 ± 0.00741 kcal/mol
- excess molar enthalpy ([2]; x1 = 0.4492): 0.19 ± 0.00765 kcal/mol
- excess molar enthalpy ([2]; x1 = 0.5076): 0.19 ± 0.00765 kcal/mol
- excess molar enthalpy ([2]; x1 = 0.5535): 0.185 ± 0.00765 kcal/mol
- excess molar enthalpy ([2]; x1 = 0.607): 0.173 ± 0.00693 kcal/mol
- excess molar enthalpy ([2]; x1 = 0.6586): 0.161 ± 0.00669 kcal/mol
- excess molar enthalpy ([2]; x1 = 0.7089): 0.146 ± 0.00598 kcal/mol
- excess molar enthalpy ([2]; x1 = 0.7542): 0.131 ± 0.00526 kcal/mol
- excess molar enthalpy ([2]; x1 = 0.8009): 0.115 ± 0.00478 kcal/mol
- excess molar enthalpy ([2]; x1 = 0.8477): 0.0946 ± 0.00382 kcal/mol
- excess molar enthalpy ([2]; x1 = 0.8974): 0.0676 ± 0.00287 kcal/mol
- excess molar enthalpy ([2]; x1 = 0.9455): 0.0423 ± 0.00167 kcal/mol
- excess molar enthalpy ([2]; x1 = 1): 0 ± 0.000239 kcal/mol
